Assay [1] deals with RNase mixture (RNase A, RNase 1, RNase T1). The experiment in a line: Isotopic RNase inactivation assay (radioactive RNA probe, acrylamide gel). To be noted: 20 mM DTT, 60° C. for 20 minutes. Type of assay: biochemical, human, E. coli and a fungus. The procedure: FIG. 1. DTT-heat inactivation of different RNase concentrations. The RNase mixture was made to different concentrations in 20 mM DTT: 1 mM sodium citrate (pH 6.4). The RNase samples were incubated at 60° C. for 20 minutes. A radioactive RNA probe was added to the treated RNase samples, incubated at 37° C. for 16 hours, fractionated in a denaturing 5% acrylamide gel and exposed to x-ray film.
The inventors routinely perform assays on RNA designed to assess RNase activity in a sample. Two different assays are typically used for the detection of ribonuclease activity, non-isotopic and isotopic. Each assay generates similar data with regard to the sensitivity of detection. In both assays, the inactivation process is typically performed on a mixture of three different ribonucleases: RNase A, RNase 1, and RNase T1. Each ribonuclease is purified from a different species: […], E. coli and a fungus, respectively. The three RNases are very different from each other in their origin, substrate specificity and protein sequence. In this way, the inactivation process can test three completely different but well characterized ribonucleases. The standard stock RNase mixture employed in the following examples is prepared by combining 1 μl RNase 1 (100 U/μl; Ambion), 1 μl RNase cocktail (RNase A, 0.5 U/μl; RNase T1, 20 U/μl, Ambion) and 98 μl water. […]

Assay [2] concerns unknown RNase in alkaline phosphatase storage solution. The assay can be described thus: Isotopic assay of RNase activity in alkaline phosphatase storage solution. Type of assay: biochemical. To be noted: 60° C. for 20 minutes. The procedure: The isotopic RNase assay uses a radioactive RNA synthesized by in vitro transcription as the RNA substrate. The RNA used in the following examples was 1.9 or 4.0 kb in length. The radioactive RNA was synthesized using a T7 MEGAscript™ transcription kit (Ambion, Inc.). The in vitro transcription reaction mixture contained 1.0 μg of linearized DNA template, 2 μl of 10× transcription buffer, 1 μl of UTP[α-^32P] (800 Ci/mmol), 2 μl of each 75 mM ribonucleotide and 2 μl of the T7 RNA polymerase mix, final volume of 20 μl. The reaction was incubated at 37° C. for 3 hours. The transcript was precipitated with 7.5 M LiCl and resuspended in 0.1 ml of 1 mM sodium citrate (pH 6.6) or RNase free water.
2 μl of the RNA probe was incubated with the test sample in a final volume of 10 μl for about 16 hours at 37° C. After incubation, the RNA was fractionated in a denaturing 6 M urea 5% acrylamide gel and then the gel was exposed to x-ray film. Untreated RNA was also fractionated as a control with the test samples for comparative purposes. […] RNase activity was indicated by the intensity of the RNA decreasing and by the appearance of smearing below the intact RNA. […]
A commercial solution of unknown composition to the inventors designed to stabilize the storage of alkaline phosphatase was detected to have RNase activity using the isotopic assay. […]

On to `O[C@H](CS)[C@H](O)CS` [DTT, dithiothreitol], for which the “concentration of RNase mixture completely inactivated” value in assay [1] (1 mM sodium citrate (pH 6.4), isotopic assay) is recorded as “up to 200 ng/ml”. In assay [1] (RNase mixture 200 ng/ml, 17 solutions, isotopic), the “RNase inactivation in different buffers and solutions” value was “inactivated RNase activity in all of buffers and solutions tested”. Besides, the “RNase activity of alkaline phosphatase storage solution” value in assay [2] (2 mM DTT) and in assay [2] (5 mM DTT) was “no detectable RNase activity” throughout.

The record behind these values is patent US6825340B2, “Methods and reagents for inactivating ribonucleases” (Ambion, Inc., priority 1998, dated 2004).
